In US11884675B2, “Heterocyclic compounds as triggering receptor expressed on myeloid cells 2 agonists and methods of use” (AMGEN INC., priority 2020, dated 2024):

Biological target: hTREM2 (Homo sapiens, UniProt Q9NZC2)
Experiment: TREM2 activity by cellular Syk phosphorylation (AlphaScreen/AlphaLISA) in TREM2/DAP12-HEK cells, used for Examples 1-305
Assay type: cell-based
Parameters: expressed in transfected cells
Conditions: HEK293 Cells
Procedure, shortened: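 Single-cell-cloned HEK293 cells overexpressing TREM2 and DAP12, seeded 20 h, exposed to test articles (1% final DMSO) for 45 min at room temperature. Lysates read for phospho-Syk (Tyr525/526) vs total Syk by AlphaScreen. Signal normalised as percent of control between isotype IgG and 100 nM anti-TREM2 antibody; 4-parameter logistic fit.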

hTREM2, sequence (Q9NZC2 19-230): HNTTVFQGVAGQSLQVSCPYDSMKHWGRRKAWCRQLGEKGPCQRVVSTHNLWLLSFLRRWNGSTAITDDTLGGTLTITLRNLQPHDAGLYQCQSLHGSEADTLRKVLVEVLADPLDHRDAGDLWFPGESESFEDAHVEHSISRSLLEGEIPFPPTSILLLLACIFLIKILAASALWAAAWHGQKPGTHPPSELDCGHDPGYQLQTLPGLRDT
hTREM2, sequence (O43914 22-113 partner): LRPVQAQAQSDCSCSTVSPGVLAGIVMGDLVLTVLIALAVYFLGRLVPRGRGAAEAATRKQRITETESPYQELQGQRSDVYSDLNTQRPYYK

EC50	hTREM2 Emax	SMILES
≤ 50 nM	++ (Emax>100 and ≤150)	Cc1cc2c(nc(N3CCO[C@@H](c4cnn(C5CC5)c4)C3)nc2[C@H]2C[C@H](C(F)(F)F)C2)nc1C [Example 113, 2-((2S)-2-(1-cyclopropyl-1H-pyrazol-4-yl)-4-morpholinyl)-6,7-dimethyl-4-(trans-3-(trifluoromethyl)cyclobutyl)pyrido[2,3-d]pyrimidine]
≤ 50 nM	++ (Emax>100 and ≤150)	Cc1cc([C@H]2CN(c3nc4nc(C)c(C)cc4c([C@H]4C[C@H](C(F)(F)F)C4)n3)CCO2)ccn1 [Example 115, 6,7-dimethyl-2-((2S)-2-(2-methyl-4-pyridinyl)-4-morpholinyl)-4-(trans-3-(trifluoromethyl)cyclobutyl)pyrido[2,3-d]pyrimidine]
≤ 50 nM	+++ (Emax>150 and ≤250)	Cc1nc2nc(N3CCO[C@@H](c4cnn(C)c4)C3)nc(-c3ccc(Cl)cc3F)c2cc1Cl [Example 116, 6-chloro-4-(4-chloro-2-fluorophenyl)-7-methyl-2-((2S)-2-(1-methyl-1H-pyrazol-4-yl)-4-morpholinyl)pyrido[2,3-d]pyrimidine]
3000 to 100000 nM	–	CN1Cc2c(cc(N3CCO[C@@H](c4cnn(C)c4)C3)nc2[C@H]2C[C@@H](C(F)(F)F)C2)C1=O [Example 117, 2-methyl-6-((2S)-2-(1-methyl-1H-pyrazol-4-yl)-4-morpholinyl)-4-(cis-3-(trifluoromethyl)cyclobutyl)-2,3-dihydro-1H-pyrrolo[3,4-c]pyridin-1-one]
500 to 3000 nM	+ (Emax>45 and ≤100)	C[C@H]1CN(c2cc3c(c(-c4ccc(Cl)cc4F)n2)CN(C)C3=O)CCO1 [Example 118, 4-(4-chloro-2-fluorophenyl)-2-methyl-6-((2S)-2-methyl-4-morpholinyl)-2,3-dihydro-1H-pyrrolo[3,4-c]pyridin-1-one]
50 to 500 nM	++ (Emax>100 and ≤150)	CN1Cc2c(cc(N3CCO[C@@H](c4cnn(C)c4)C3)nc2-c2ccc(Cl)cc2F)C1=O [Example 119, 4-(4-chloro-2-fluorophenyl)-2-methyl-6-((2S)-2-(1-methyl-1H-pyrazol-4-yl)-4-morpholinyl)-2,3-dihydro-1H-pyrrolo[3,4-c]pyridin-1-one]
50 to 500 nM	++++ (Emax>250)	CN1Cc2c(cc(N3CCO[C@@H](c4cnn(C5CC5)c4)C3)nc2-c2ccc(Cl)cc2F)C1=O [Example 120, 4-(4-chloro-2-fluorophenyl)-6-((2S)-2-(1-cyclopropyl-1H-pyrazol-4-yl)-4-morpholinyl)-2-methyl-2,3-dihydro-1H-pyrrolo[3,4-c]pyridin-1-one]
50 to 500 nM	++++ (Emax>250)	CCN1Cc2c(cc(N3CCO[C@@H](c4cnn(C)c4)C3)nc2-c2ccc(Cl)cc2F)C1=O [Example 121, 4-(4-chloro-2-fluorophenyl)-2-ethyl-6-((2S)-2-(1-methyl-1H-pyrazol-4-yl)-4-morpholinyl)-2,3-dihydro-1H-pyrrolo[3,4-c]pyridin-1-one]
500 to 3000 nM	+++ (Emax>150 and ≤250)	CC(C)N1Cc2c(cc(N3CCO[C@@H](c4cnn(C)c4)C3)nc2-c2ccc(Cl)cc2F)C1=O [Example 122, 4-(4-chloro-2-fluorophenyl)-6-((2S)-2-(1-methyl-1H-pyrazol-4-yl)-4-morpholinyl)-2-(2-propanyl)-2,3-dihydro-1H-pyrrolo[3,4-c]pyridin-1-one]
50 to 500 nM	+++ (Emax>150 and ≤250)	Cc1nc2nc(N3CCO[C@@H](c4cnn(C)c4)C3)nc(C3=CCC(F)(F)CC3)c2nc1C [Example 125, 4-(4,4-difluoro-1-cyclohexen-1-yl)-6,7-dimethyl-2-((2S)-2-(1-methyl-1H-pyrazol-4-yl)-4-morpholinyl)pteridine]
500 to 3000 nM	+ (Emax>45 and ≤100)	Cc1nc2nc(N3CCO[C@@H](c4cnn(C)c4)C3)nc(C3=CCCC3)c2nc1C [Example 128, 4-(1-cyclopenten-1-yl)-6,7-dimethyl-2-((2S)-2-(1-methyl-1H-pyrazol-4-yl)-4-morpholinyl)pteridine]
50 to 500 nM	+++ (Emax>150 and ≤250)	Cc1nc2nc(N3CCO[C@@H](c4cnn(C)c4)C3)nc([C@H]3CC[C@@H](C(F)(F)F)CC3)c2nc1C [Example 131, 6,7-dimethyl-2-((2S)-2-(1-methyl-1H-pyrazol-4-yl)-4-morpholinyl)-4-(cis-4-(trifluoromethyl)cyclohexyl)pteridine]
≤ 50 nM	++ (Emax>100 and ≤150)	Cc1nc2nc(N3CCO[C@@H](c4cnn(C)c4)C3)nc([C@H]3CC[C@H](C(F)(F)F)CC3)c2nc1C [Example 132, 6,7-dimethyl-2-((2S)-2-(1-methyl-1H-pyrazol-4-yl)-4-morpholinyl)-4-(trans-4-(trifluoromethyl)cyclohexyl)pteridine]
≤ 50 nM	+++ (Emax>150 and ≤250)	Cc1nc2nc(N3CCO[C@@H](c4cnn(C)c4)C3)nc(C3CCC(F)(F)CC3)c2nc1C [Example 133, 4-(4,4-difluorocyclohexyl)-6,7-dimethyl-2-((2S)-2-(1-methyl-1H-pyrazol-4-yl)-4-morpholinyl)pteridine]
50 to 500 nM	+ (Emax>45 and ≤100)	Cc1nc2nc(N3CCO[C@@H](c4cnn(C)c4)C3)nc(C3CCCCC3)c2nc1C [Example 134, 4-cyclohexyl-6,7-dimethyl-2-((2S)-2-(1-methyl-1H-pyrazol-4-yl)-4-morpholinyl)pteridine]
50 to 500 nM	+ (Emax>45 and ≤100)	Cc1nc2nc(N3CCO[C@@H](c4cnn(C)c4)C3)nc([C@H]3CC[C@@H](C)CC3)c2nc1C [Example 135, 6,7-dimethyl-4-(cis-4-methylcyclohexyl)-2-((2S)-2-(1-methyl-1H-pyrazol-4-yl)-4-morpholinyl)pteridine]
≤ 50 nM	+++ (Emax>150 and ≤250)	Cc1nc2nc(N3CCO[C@@H](c4cnn(C)c4)C3)nc([C@H]3CC[C@H](C)CC3)c2nc1C [Example 136, 6,7-dimethyl-4-(trans-4-methylcyclohexyl)-2-((2S)-2-(1-methyl-1H-pyrazol-4-yl)-4-morpholinyl)pteridine]
≤ 50 nM	+++ (Emax>150 and ≤250)	Cc1nc2nc(N3CCO[C@@H](c4cnn(C)c4)C3)nc(C3CCC4(CC3)CC4)c2nc1C [Example 137, 6,7-dimethyl-2-((2S)-2-(1-methyl-1H-pyrazol-4-yl)-4-morpholinyl)-4-(spiro[2.5]octan-6-yl)pteridine]

SMILES	EC50	hTREM2 Emax
Cc1cnc2c(-c3ccc(Cl)cc3F)nc(N3CCO[C@@H](c4cnn(C5COC5)c4)C3)cc2n1 [Example 129, 5-(4-chloro-2-fluorophenyl)-2-methyl-7((2S)-2-(1-(3-oxetanyl)-1H-pyrazol-4-yl)-4-morpholinyl) pyrido[3,4-b]pyrazine]	50 to 500 nM	++++ (Emax>250)
Cc1nc2nc(N3CCO[C@@H](c4cnn(C)c4)C3)nc(C3CCC(C)(C)CC3)c2nc1C [Example 130, 4-(4,4-dimethylcyclohexyl)-6,7-dimethyl-2-((2S)-2-(1-methyl-1H-pyrazol-4-yl)-4-morpholinyl) pteridine]	≤ 50 nM	+ (Emax>45 and ≤100)
